# According to patent publication US11484484B2, “Composition for alleviating skin barrier dysfunction” (LG HOUSEHOLD & HEALTH CARE LTD., priority 2018, dated 2022):
# Entries after “also recorded” stand apart in the source; their conditions may differ.
# How the values were obtained:
# LC3-II = LC3-II production by western blotting in keratinocytes; format: cell-based, human; details: HaCaT cells
# Text: (§1) HaCaT cells were inoculated into a 60 mm plate at a concentration of 8×10^5 cells and independently treated with hydroxycinnamic acid, isoamyl acetate, and betaine the next day, and then the cells were eluted with a 5× lysis buffer to obtain proteins. Cell debris was removed by centrifugation and quantified using a BCA protein assay kit (Pierce, USA). The cell-extracted proteins were isolated using a 4%-15% SDS-PAGE gel (Bio-Rad, USA) and transferred to a nitrocellulose membrane (Life Technologies, New Zealand). The cells were then blocked with a TBST buffer containing 3% BSA for 1 hour and thereupon reacted in a buffer solution containing primary antibodies at 4° C. for 1 day. The membrane was washed with TBST, reacted with peroxidase-conjugated secondary antibodies, and then colored using enhanced chemiluminescence (Amersham, UK), and the immune-reactive bands were confirmed with the Fusion FX 5 image system (Vilber Lourmat, France).
# The cytotoxicity of betaine on keratinocytes was confirmed, and the results of Experimental Example 1 were confirmed by the western blotting analysis of Example 4 to determine the degree of production of LC3-II converted as it entered into the double membranes of the autophagosomes. […] Additionally, the cells were treated with 50 μg/mL betaine and the amount of LC3-II conversion per hour was observed.
# [1] = tested on: HaCaT cells introduced with the GFP-LC3 vector; assay: Screening for autophagy activation: GFP-LC3 puncta quantification; format: cell-based, human; details: for proportion of cells with increased GFP-LC3 puncta vesicles: fluorescence microscopy
# Method: A GFP (green fluorescence protein)-conjugated microtubule-binding protein 1 light chain 3 (LC3) expression vector (Cell Biolabs, USA) was introduced into HaCaT cells using Lipofectamine 2000 (Invitrogen, USA), which is a gene transfer reagent, and the resultant was cultured for 12 hours in a condition containing 10% FBS and then treated with candidate compounds expected to promote autophagy, which was selected from a library of single compounds derived from natural substances, at each concentration in the medium. Subsequently, the evaluation was performed by fluorescence microscopy (Leica Microsystems, USA). In order to quantify the induction of autophagy, 100 GFP-positive cells in which puncta autophagosomes were formed (punctae=5) were counted using fluorescence microscopy. In order to improve the barrier function by promoting epidermal differentiation through the activation of autophagy, which is reduced due to aging or external stimuli, a search was conducted starting from a library of single compounds derived from natural substances for those that promote autophagic activity of keratinocytes. Specifically, as in the method of Example 3, candidate compounds expected to promote autophagy were treated to HaCaT cells introduced with the GFP-LC3 vector. Thereafter, the number of cells with increased GFP-LC3 puncta vesicles in the cytoplasm was increased as GFP was conjugated to LC3, which was converted into a membrane-bound form when autophagy was induced in each cell, was compared.
# LC3-II, p62/SQSTM1 = assay: Autophagosome synthesis mechanism: co-treatment with bafilomycin A1, LC3-II and p62 western blotting; format: cell-based, human
# Text: as §1
# Therefore, in order to investigate a mechanism by which the autophagosomes are increased by way of betaine treatment, the cells were treated with bafilomycin A1 (Baf. A1), which is known as a lysosomal activity inhibitor, together with betaine, and the degree of LC3-II production was confirmed by western blotting analysis.
# HaCaT cells = format: cell-based; details: 10 μg/mL, 50 μg/mL and 100 μg/mL
# AKT-mTOR-S6 pathway = assay: Phosphorylation of AKT-mTOR-S6 pathway by western blotting; format: cell-based, human; details: HaCaT cells
# Text: as §1
# In previous studies, betaine—homocysteine methyltransferase (BHMT) has been reported to reduce the amount of homocysteine in a betaine-dependent manner. In one study, homocysteine was reported to promote the activity of mTORC1, an enzyme that inhibits autophagy. Thus, in order to find a mechanism by which autophagy is promoted by betaine, an experiment was conducted to identify related upstream signaling factors. […]
# [2] = tested on: reconstructed human epidermis model (Neoderm-E); assay: Epidermal thickness in 3D artificial skin model; format: cell-based; details: 1% cream formulation; for Increase relative to Control: epidermal thickness ratio
# Method: (§2) A reconstructed human epidermis model (Neoderm-E, Tego Science, Korea) was transferred to a 6-well plate and stabilized in 2 mL of a growth medium (Tego Science, Korea) for 24 hours, and the cream-type hydroxycinnamic acid, isoamyl acetate, and betaine were applied to the artificial skin at each concentration. After culturing for 24 hours, the hydroxycinnamic acid, isoamyl acetate, and betaine cream applied on the artificial skin were washed with phosphate buffer saline (PBS), and then the tissue was disrupted using a RIPA buffer (50 mM Tris-HCl, pH 7.4, 150 mM NaCl, 1% NP-40) containing Protease Inhibitor Cocktails (ThermoFisher Scientific, USA) by sonication. The tissue-extracted proteins were analyzed for the autophagic activity of keratinocytes in the tissue by western blotting analysis. 1% creams of hydroxycinnamic acid, isoamyl acetate, and betaine were applied on the artificial skin, followed by H&E staining after 1 week to confirm the increase in thickness of the epidermis.
# Next, the cream formulations of 1% betaine, 1% hydroxycinnamic acid, and 1% isoamyl acetate were applied to the artificial skin, and changes in the thickness of the epidermis were measured after […] staining of the artificial skin tissue.
# [3] = tested on: reconstructed human epidermis model (Neoderm-E); assay: LC3-II production in 3D artificial skin model; format: cell-based; details: 1% cream formulation, after 24 hours
# Method: as §2
# In order to confirm whether the differentiation in the epidermis is promoted by the effect of promoting autophagy by way of betaine, hydroxycinnamic acid, and isoamyl acetate, a 3D artificial skin model was used as in Example 5. […] After 24 hours, the degree of LC3-II production was measured through western blotting analysis to determine whether autophagy in the epidermis was promoted.
# [4] = general description of the substance; cited from earlier work
Structure (SMILES),"amount of LC3-II conversion, from 12 hours (LC3-II; 50 μg/mL, 12 hours)","amount of LC3-II conversion, after 24 hours (LC3-II; 50 μg/mL, 24 hours)","amount of LC3-II conversion, until 6 hours (LC3-II; 50 μg/mL, until 6 hours)","amount of LC3-II by concentration (LC3-II; 10, 50, 100 μg/mL, western blotting)","number of cells with increased GFP-LC3 puncta vesicles, increase compared to the untreated group [1] [%]",proportion of cells with increased GFP-LC3 puncta vesicles [1] [%],"amount of p62/SQSTM1 (p62) protein (LC3-II, p62/SQSTM1; betaine treatment, western blotting)","amount of LC3-II with bafilomycin A1 together with betaine compared to betaine alone (LC3-II, p62/SQSTM1; co-treatment with lysosomal activity inhibitor bafilomycin A1)",cytotoxicity (HaCaT cells),mTOR signals (degree of phosphorylation of the AKT-mTOR-S6 pathway) (AKT-mTOR-S6 pathway),Thickness of Epidermis [2] [μm],epidermal thickness increase compared to the control group [2] [%],Increase relative to Control [2],autophagy (degree of LC3-II production) in the epidermis [3],solubility [4]
"C[N+](C)(C)CC(=O)[O-] [betaine, trimethylglycine]",the amount of conversion increased,the highest conversion was observed; also recorded: conversion mostly occurred,a significant increase was not observed,increased as the concentration increased,18.75,25,reduced; also recorded: decrease,further increased,no cytotoxicity was observed,not possible to observe a significant difference; also recorded: no significant difference,74,19,1.19,autophagy was increased,–
CC(=O)OCCC(C)C [isoamyl acetate],–,–,–,–,–,16.4,–,–,–,–,85,37,1.37,autophagy was increased,"not well soluble in water, but soluble in alcohol and organic solvents"
